Test results from patent EP4653000A1, “INHIBITORS OF PSEUDOMONAS AERUGINOSA ELASTASE (LASB) FOR THE TREATMENT OF PSEUDOMONAS KERATITIS” (Helmholtz-Zentrum für Infektionsforschung GmbH, priority 2024, dated 2025).

Tests used:
[1] = Concentration of HIPS-7178 in eye homogenate and serum in the keratitis model (HPLC-MS/MS); format: in vivo, C57BL/6N mice; settings: topical 5 µL of 1 mg/mL every eight hours along 72h; Figure 2 (a)
Procedure: Animals. The animal experiments were approved by Saarland University's Animal Welfare Committee (Application number: 17/2021) and conducted in accordance with German and European recommendations and guidelines for the ethical use of animals. The laboratory animals were all C57BL/6N female eight to eleven months old mice. Unlimited access to water and show was secured. Temperature was closely maintained around 22 °C and relative air humidity around 50%. Light and darkness alternated at twelve-hour intervals. All laboratory animals were purchased from Charles River GmbH, Sulzfeld, Germany.
Infection procedure. Anesthesia and infection were performed as previously published. […]
Documentation and Treatment. […] Keratitis severity was visualized using a stereomicroscope (Leitz ELVAR, Wetzlar, Germany) at 16× magnification combined with a high-resolution microscope digital camera (Seben GmbH, Berlin, Germany) and evaluated using a previously described clinical scoring scheme (Lyu et al., 2020). […] The body weight of the mice was measured daily and used as welfare indicator. General condition and behavior were also recorded daily. […]

[2] = tested on: P. aeruginosa strain PA54; test: LasB and desmosin levels in eye homogenate in the experimental bacterial keratitis model (LC-MS/MS); format: in vivo, C57BL/6N mice; settings: for LasB levels in eye homogenate: compared with vehicle (highest levels), p < 0.05, Figure 2 (b)
[3] = tested on: P. aeruginosa strain PA54; test: Antibiotic susceptibility / minimum inhibitory concentration (MIC) of strain PA54; format: cell-based, Pseudomonas aeruginosa; settings: strain PA54, clinical isolate from eye wound swab
From the text: Pseudomonas aeruginosa. The P. aeruginosa strain PA54 was employed to induce an experimental bacterial keratitis in the aforementioned C57BL/6N mice. The strain PA54 was isolated from a human infection (wound swab from the eye) and collected at Saarland University Medical Center's Institute for Medical Microbiology and Hygienics (IMMH) in 2009.

Compound | LasB levels in eye homogenate [2] | sensibility of PA54 (multidrug-resistant classification) [3] | further results
CC(=O)c1ccc(NC(=O)[C@@H](NC(=O)C(CC(C)C)P(=O)(O)O)C(C)C)cc1 (some centres unmarked) [HIPS-7178] | reduced levels |  | HIPS-7178 concentrations in eye homogenate and serum [1]: similarly high
CO/N=C(\C(=O)N[C@@H]1C(=O)N2C(C(=O)[O-])=C(C[N+]3(C)CCCC3)CS[C@H]12)c1csc(N)n1 [cefepime] |  | lacking sensibility | 
C[C@@H](O)[C@H]1C(=O)N2C(C(=O)O)=C(S[C@@H]3CN[C@H](C(=O)N(C)C)C3)[C@H](C)[C@H]12 [meropenem] | reduced levels |  | Desmosin levels in eye ([2]; compared with uninfected control, Figure 2 (c)): similarly high levels as uninfected group
C[C@@H]1O[C@@H]1P(=O)(O)O [fosfomycin] |  | lacking sensibility | 
CC(C)(O/N=C(\C(=O)N[C@@H]1C(=O)N2C(C(=O)[O-])=C(C[n+]3ccccc3)CS[C@H]12)c1csc(N)n1)C(=O)O [ceftazidime] |  | lacking sensibility | 
gentamicin |  | lacking sensibility | 
